Tested on: mice
Test: acute toxicity (LD50)
Type: in vivo
Settings: p.o. in mice

## O=C(O)Cc1ccc2c(c1)sc1ccc(Cl)cc12 [8-chloro-dibenzothiophene-3-acetic acid]
  LD50: 775 mg
